# Measurements published in patent US9796672B2, “Isoindoline compositions and methods for treating neurodegenerative disease” (Cognition Therapeutics, Inc., priority 2014, dated 2017).
# “Also recorded” adds a separate entry of the source.
# Target: Sigma-2 receptor
# Test: Sigma-2 receptor competitive radioligand binding assay
# Set-up: species or system rat
# Settings: read-out: Sigma-2 Receptor Affinity, Ki
row,Ki [nM],SMILES
1,8.5,CC(C)(C)Oc1cc(CCC(C)(C)N2Cc3ccc(S(C)(=O)=O)cc3C2)ccc1O [compound 62]
2,550,CC(C)(C)Oc1cc(CCC(C)(C)N2Cc3c(F)ccc(F)c3C2)ccc1O [compound 74]
3,> 10000,CC(C)(C)Oc1cc(CCC(C)(C)N2Cc3cccc(C(=O)O)c3C2)ccc1O [compound 75]
4,10000,COc1cc(CCC(C)(C)N2Cc3cccc(C(=O)NCCN(C)C)c3C2)ccc1O [compound 78]
5,460,COc1cc(CCC(C)(C)N2Cc3cccc(C(=O)NCCO)c3C2)ccc1O [compound 79]
6,10000,COc1cc(CCC(C)(C)N2Cc3cccc(C(=O)N4CCN(C(C)=O)CC4)c3C2)ccc1O [compound 83]
7,1.3,CC(C)COc1cc(CCC(C)(C)N2Cc3cccc(F)c3C2)ccc1O [compound 88]

# Test system: neuronal cultures
# Test: Functional neuronal phenotype in neuronal cultures
# Type: cell-based
# Set-up: key: Antagonist: antagonists (block Abeta signaling); Agonist: agonists (block Abeta signaling with U-shaped dose-response curve and toxicity at high doses); Inactive: inactive (no effect in neuronal cultures)
# Settings: not given
row,SMILES,neuronal phenotype
1,CC(C)(C)Oc1cc(CCC(C)(C)N2Cc3ccc(S(C)(=O)=O)cc3C2)ccc1O [compound 62],Antagonist
2,CC(C)(C)Oc1cc(CCC(C)(C)N2Cc3c(F)ccc(F)c3C2)ccc1O [compound 74],Antagonist
3,CC(C)(C)Oc1cc(CCC(C)(C)N2Cc3cccc(C(=O)O)c3C2)ccc1O [compound 75],Inactive
4,COc1cc(CCC(C)(C)N2Cc3cccc(C(=O)NCCN(C)C)c3C2)ccc1O [compound 78],Neuroactive
5,COc1cc(CCC(C)(C)N2Cc3cccc(C(=O)NCCO)c3C2)ccc1O [compound 79],Inactive
6,COc1cc(CCC(C)(C)N2Cc3cccc(C(=O)N4CCN(C(C)=O)CC4)c3C2)ccc1O [compound 83],Inactive
7,CC(C)COc1cc(CCC(C)(C)N2Cc3cccc(F)c3C2)ccc1O [compound 88],Neuroactive

# Target: potassium channel hERG (Homo sapiens (Human), UniProt Q12809)
# Sequence (Q12809 whole entry): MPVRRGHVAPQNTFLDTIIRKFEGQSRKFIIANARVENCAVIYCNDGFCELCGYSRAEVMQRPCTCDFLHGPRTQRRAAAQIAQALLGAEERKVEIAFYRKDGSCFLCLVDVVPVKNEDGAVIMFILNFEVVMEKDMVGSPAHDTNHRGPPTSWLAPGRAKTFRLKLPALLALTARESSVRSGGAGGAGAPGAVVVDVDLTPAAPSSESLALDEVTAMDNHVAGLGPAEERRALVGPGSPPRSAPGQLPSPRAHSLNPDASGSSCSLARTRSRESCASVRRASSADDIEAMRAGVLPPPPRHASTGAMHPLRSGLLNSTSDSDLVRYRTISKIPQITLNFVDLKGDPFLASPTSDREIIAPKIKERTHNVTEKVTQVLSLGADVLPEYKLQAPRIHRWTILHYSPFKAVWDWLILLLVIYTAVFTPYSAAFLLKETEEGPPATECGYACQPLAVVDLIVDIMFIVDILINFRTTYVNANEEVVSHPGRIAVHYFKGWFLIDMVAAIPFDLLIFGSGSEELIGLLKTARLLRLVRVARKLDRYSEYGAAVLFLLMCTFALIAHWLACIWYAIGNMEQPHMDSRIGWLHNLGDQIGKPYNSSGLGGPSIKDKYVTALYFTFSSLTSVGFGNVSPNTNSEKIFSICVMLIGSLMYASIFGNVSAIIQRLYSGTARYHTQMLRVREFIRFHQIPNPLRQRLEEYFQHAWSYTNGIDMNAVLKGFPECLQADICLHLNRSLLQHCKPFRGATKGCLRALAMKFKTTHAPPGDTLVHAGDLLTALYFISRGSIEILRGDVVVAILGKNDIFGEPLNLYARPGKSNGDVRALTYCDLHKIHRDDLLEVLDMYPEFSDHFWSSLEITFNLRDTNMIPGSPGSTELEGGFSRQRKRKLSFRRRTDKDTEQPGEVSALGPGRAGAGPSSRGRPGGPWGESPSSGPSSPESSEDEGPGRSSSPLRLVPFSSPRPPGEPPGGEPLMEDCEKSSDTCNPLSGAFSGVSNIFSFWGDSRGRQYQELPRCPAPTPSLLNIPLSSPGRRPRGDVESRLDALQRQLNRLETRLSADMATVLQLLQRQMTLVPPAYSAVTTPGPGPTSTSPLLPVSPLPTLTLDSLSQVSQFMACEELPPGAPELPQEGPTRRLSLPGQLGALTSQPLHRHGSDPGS
# Test: In vitro toxicity, hERG inhibition
# Type: biochemical
# Settings: not given
row,SMILES,IC50 [µM]
1,CC(C)(C)Oc1cc(CCC(C)(C)N2Cc3ccc(S(C)(=O)=O)cc3C2)ccc1O [compound 62],26
2,CC(C)(C)Oc1cc(CCC(C)(C)N2Cc3c(F)ccc(F)c3C2)ccc1O [compound 74],100
3,CC(C)(C)Oc1cc(CCC(C)(C)N2Cc3cccc(C(=O)O)c3C2)ccc1O [compound 75],100
4,COc1cc(CCC(C)(C)N2Cc3cccc(C(=O)NCCN(C)C)c3C2)ccc1O [compound 78],110
5,COc1cc(CCC(C)(C)N2Cc3cccc(C(=O)NCCO)c3C2)ccc1O [compound 79],11
6,COc1cc(CCC(C)(C)N2Cc3cccc(C(=O)N4CCN(C(C)=O)CC4)c3C2)ccc1O [compound 83],10
7,CC(C)COc1cc(CCC(C)(C)N2Cc3cccc(F)c3C2)ccc1O [compound 88],2.8

# Test system: neurons
# Test: not given
# Settings: 24 hours treatment; cited from earlier work
row,SMILES,nuclear morphology / nuclear intensity in neurons
1,"COc1cc2c(cc1OC)CN(CCCCNC(=O)c1cc(C)ccc1OC)CC2 [RHM-1, N-[4-(3,4-dihydro-6,7-dimethoxyisoquinolin-2(1H)-yl)butyl]-2-methoxy-5-methylbenzamide]",do not decrease nuclear intensity
2,COc1ccc(C)cc1NC(=O)OC1C[C@H]2CCC[C@@H](C1)N2CCCCCCN (stereo partly drawn) [SV-119],cause significant abnormal nuclear morphology in neurons
3,Fc1ccc(-n2cc(CCCCN3CCC4(CC3)OCc3ccccc34)c3ccccc32)cc1 [Siramesine],cause significant abnormal nuclear morphology in neurons

# Target: Sigma-1 receptor
# Test: Sigma-1 receptor competitive radioligand binding assay
# Settings: read-out: Sigma-1 Receptor Affinity, Ki
# Method: Radioligand binding assays for Sigma-1 receptors and Sigma-2 receptors were carried out by a commercial contract research organization. For Sigma-1 binding, various concentrations of test compounds from 100 μM to 1 nM were used to displace 8 nM [^3H](+)pentazocine from endogenous receptors on Jurkat cell membranes (Ganapathy M E et al. 1991, J Pharmacol. Exp. Ther. 289:251-260). 10 μM Haloperidol was used to define non-specific binding. […] 10 μM Haloperidol was used to define non-specific binding. Reactions were terminated by rapid filtration through Whatman GF/C filters using a Brandel 12R cell harvester followed by two washes with ice-cold buffer. Radioactivity on the dried filter discs was measured using a liquid scintillation analyzer (Tri-Carb 2900TR; PerkinElmer Life and Analytical Sciences). The displacement curves were plotted and the Ki values of the test ligands for the receptor subtypes were determined using GraphPad Prism (GraphPad Software Inc., San Diego, Calif.). The percentage specific binding was determined by dividing the difference between total bound (disintegrations per minute) and nonspecific bound (disintegrations per minute) by the total bound (disintegrations per minute).
row,Ki [µM],SMILES
1,0.063,CC(C)(C)Oc1cc(CCC(C)(C)N2Cc3ccc(S(C)(=O)=O)cc3C2)ccc1O [compound 62]
2,2.3,CC(C)(C)Oc1cc(CCC(C)(C)N2Cc3c(F)ccc(F)c3C2)ccc1O [compound 74]
3,10,CC(C)(C)Oc1cc(CCC(C)(C)N2Cc3cccc(C(=O)O)c3C2)ccc1O [compound 75]
4,10,COc1cc(CCC(C)(C)N2Cc3cccc(C(=O)NCCN(C)C)c3C2)ccc1O [compound 78]
5,10,COc1cc(CCC(C)(C)N2Cc3cccc(C(=O)NCCO)c3C2)ccc1O [compound 79]
6,10,COc1cc(CCC(C)(C)N2Cc3cccc(C(=O)N4CCN(C(C)=O)CC4)c3C2)ccc1O [compound 83]
7,0.096,CC(C)COc1cc(CCC(C)(C)N2Cc3cccc(F)c3C2)ccc1O [compound 88]

# Test system: caspase-3
# Test: not given
# Settings: tumor cells and neurons; cited from earlier work
row,SMILES,caspase-3 activation
1,"COc1cc2c(cc1OC)CN(CCCCNC(=O)c1cc(C)ccc1OC)CC2 [RHM-1, N-[4-(3,4-dihydro-6,7-dimethoxyisoquinolin-2(1H)-yl)butyl]-2-methoxy-5-methylbenzamide]",do not induce caspase-3 activity
2,COc1ccc(C)cc1NC(=O)OC1C[C@H]2CCC[C@@H](C1)N2CCCCCCN (stereo partly drawn) [SV-119],activate caspase-3 in tumor cells and neurons
3,Fc1ccc(-n2cc(CCCCN3CCC4(CC3)OCc3ccccc34)c3ccccc32)cc1 [Siramesine],activate caspase-3 in tumor cells and neurons; also recorded: induces caspase-3 activity

# Same assay, conditions: tumor cells; cited from earlier work
row,SMILES,inhibition of caspase-3 activation
1,"COc1cc2c(cc1OC)CN(CCCCNC(=O)c1cc(C)ccc1OC)CC2 [RHM-1, N-[4-(3,4-dihydro-6,7-dimethoxyisoquinolin-2(1H)-yl)butyl]-2-methoxy-5-methylbenzamide]",inhibits the activation in tumor cells

# Test system: MDA-MB-435 or MDA-MB231 or SKOV-3 cells
# Test: Tumor cell viability (MTS) assay
# Type: cell-based
# Settings: not given
# Method: The cytotoxicity of test compounds is determined using the CellTiter96 Aqueous One Solution Assay (Promega, Madison, Wis.). Briefly, MDA-MB-435 or MDA-MB231 or SKOV-3 cells were seeded in a 96-well plate at a density of 2000 cells/well on the day prior to treatment with sigma-2 receptor selective ligands. […] The plate is read at 490 nm in a Victor3 plate reader (PerkinElmer Life and Analytical Sciences, Shelton, Conn.). The EC^50 value, defined as the concentration of the sigma ligand required to inhibit cell viability by 50% relative to untreated cells, is determined from the dose response curve for each cell line. Siramesine is accepted as an agonist.
row,SMILES,Action
1,"COc1cc2c(cc1OC)CN(CCCCNC(=O)c1cc(C)ccc1OC)CC2 [RHM-1, N-[4-(3,4-dihydro-6,7-dimethoxyisoquinolin-2(1H)-yl)butyl]-2-methoxy-5-methylbenzamide]",Antagonist
2,COc1ccc(C)cc1NC(=O)OC1C[C@H]2CCC[C@@H](C1)N2CCCCCCN (stereo partly drawn) [SV-119],Full agonist
3,Fc1ccc(-n2cc(CCCCN3CCC4(CC3)OCc3ccccc34)c3ccccc32)cc1 [Siramesine],Full agonist

# Same assay, conditions: read-out: IC50, 48 hrs.; Tumor cell viability, 48 hrs
row,SMILES,IC50 [µM]
1,COc1ccc(C)cc1NC(=O)OC1C[C@H]2CCC[C@@H](C1)N2CCCCCCN (stereo partly drawn) [SV-119],21.7 ± 2.9

# Test system: not listed separately
# Test: Mouse liver microsome (MLM) stability
# Type: in vitro ADME
# Settings: mouse, microsomes
# Method: A first pharmacokinetic study was performed in microsomes of mice mouse liver microsomes, MLM) by a commercial contract research organization. The studies were performed according to Obach, R. S et al. (1997) J. Pharmacol. Exp. Ther., 283: 46-58, which is incorporated herein by reference.
row,"Mouse liver microsomes, MLM t½ [min]",SMILES
1,45,CC(C)(C)Oc1cc(CCC(C)(C)N2Cc3ccc(S(C)(=O)=O)cc3C2)ccc1O [compound 62]
2,21,CC(C)(C)Oc1cc(CCC(C)(C)N2Cc3c(F)ccc(F)c3C2)ccc1O [compound 74]
3,508,CC(C)(C)Oc1cc(CCC(C)(C)N2Cc3cccc(C(=O)O)c3C2)ccc1O [compound 75]
4,450,COc1cc(CCC(C)(C)N2Cc3cccc(C(=O)NCCN(C)C)c3C2)ccc1O [compound 78]
5,144,COc1cc(CCC(C)(C)N2Cc3cccc(C(=O)NCCO)c3C2)ccc1O [compound 79]
6,336,COc1cc(CCC(C)(C)N2Cc3cccc(C(=O)N4CCN(C(C)=O)CC4)c3C2)ccc1O [compound 83]
7,28,CC(C)COc1cc(CCC(C)(C)N2Cc3cccc(F)c3C2)ccc1O [compound 88]

# Test system: Abeta oligomer-induced synapse loss in primary hippocampal neurons
# Test: Abeta 1-42 oligomer binding and synapse loss assay
# Type: cell-based, rat
# Settings: not given
SMILES,elimination of Abeta oligomer-induced synapse loss,synapse loss recovery [%]
CCCN(CCC)CCc1ccc(OC)c(OCCc2ccccc2)c1 [NE-100],completely eliminated synapse loss,–
CCC(Oc1ccc(Cl)cc1)C(=O)OC1CC2CCC(C1)N2C (stereo not drawn) [SM-21],only weakly active in eliminating synapse loss,20
O=C(CCCN1CCC(O)(c2ccc(Cl)cc2)CC1)c1ccc(F)cc1 [haloperidol],completely eliminated synapse loss,–

# Test system: Abeta oligomer-induced membrane trafficking deficits in primary hippocampal neurons
# Test: Membrane trafficking/exocytosis (MTT) assay
# Settings: read-out: Membrane Trafficking EC50; compound dosed prior to Abeta oligomer addition
row,SMILES,EC50 [µM]
1,CC(C)(C)Oc1cc(CCC(C)(C)N2Cc3ccc(S(C)(=O)=O)cc3C2)ccc1O [compound 62],0.06
2,CC(C)(C)Oc1cc(CCC(C)(C)N2Cc3c(F)ccc(F)c3C2)ccc1O [compound 74],0.3
3,CC(C)(C)Oc1cc(CCC(C)(C)N2Cc3cccc(C(=O)O)c3C2)ccc1O [compound 75],> 20
4,COc1cc(CCC(C)(C)N2Cc3cccc(C(=O)NCCN(C)C)c3C2)ccc1O [compound 78],8.8
5,COc1cc(CCC(C)(C)N2Cc3cccc(C(=O)NCCO)c3C2)ccc1O [compound 79],100
6,COc1cc(CCC(C)(C)N2Cc3cccc(C(=O)N4CCN(C(C)=O)CC4)c3C2)ccc1O [compound 83],100
7,CC(C)COc1cc(CCC(C)(C)N2Cc3cccc(F)c3C2)ccc1O [compound 88],0.36
